According to patent US20050032863A1, “Method of treating or preventing central nervous system disorders with compounds having selectivity for the alpha 3 subunit of the benzodiazepine receptor” (priority 2003, published 2005):
pEC50: −log10 of the molar value. “Also recorded” adds a separate entry of the source.

What was measured:
[1] = system: extracellular 5-HT, HIAA and dopamine in the striatum of rats; experiment: Microdialysis in the striatum of rats (Example 3); assay type: in vivo, rat; settings: 30 mg/kg i.p.
Description: The day before the experiment, male rats were anaesthetised with chloral hydrate (3.6%, 1 ml/100 g i.p.) and placed in a stereotaxic frame to implant a microdialysis guide cannula (CMA/12, Carnegie Medicine, Sweden). Scalp was incised in the median anterior-posterior direction between lambda and bregma and a small hole was drilled into the skull. The stereotaxic coordinates were AP=+1.0 mm, L=−3.0 mm from bregma and 1.5 mm from the skull surface for the striatum according to the atlas of Paxinos and Watson, (1986) (1). Dental cement (Sinfony(2)) was used to fix the guide cannula and anchor screws to the cranium. During the surgery rectal temperature was maintained at 37° C. using a heating blanket.
The day before the experiment the microdialysis probe (CMA/12, membrane length 4 mm, Carnegie Medicin, Sweden) was inserted into the striatum through the guide cannula. On the day of experiment the probe was perfused with Ringer solution (148 mM NaCl, 4 mM KCl, 2,4 mM CaCl2, pH=6,0). The flow rate (1 μl/min) allowed to collect 20 μl samples every 20 minutes into microvials. Microvials were stored in a fraction collector (CMA/170) at a temperature of 8° C. until analysed. Using a swivel joint the perfusion arrangement allowed the animal to move freely within a hemispherical bowl. After an adjusting time of one hour 3 consecutive 20-min-fractions were collected to establish a stable basal level of neurotransmitter release.
Thereafter 30 mg/kg E131-00139 or an equivalent volume of 0.5% tylose/PEG300 9:1, respectively, was administered. Then collecting samples was continued for at least 220 minutes.
Dialysates were directly analysed by reverse-phase high-performance liquid chromatography with electrochemical detection (HPLC-EC). The samples were separated by a ZORBAX SB-Aq 2.1 mm ID×100 mm column (Agilent Technologies). […]
Therefore data of each animal were expressed as percentages. Data from dialysates before administering the substances were averaged, and the mean set as 100%; all individual values were calculated accordingly.

locomotor activity = settings: open field test and different animal models of anxiety; cited from earlier work
[2] = molecular target: T1, recombinant rat α4β2γ2 GABAA receptors (Rattus norvegicus, UniProt P28471); experiment: Whole-cell patch-clamp, modulation of GABA (EC20)-induced currents in transfected HEK 293 cells, α4β2γ2; assay type: cell-based
T1 construct: expressed in transfected cells; host or cells: HEK 293
T1 sequence (P28471 36-552): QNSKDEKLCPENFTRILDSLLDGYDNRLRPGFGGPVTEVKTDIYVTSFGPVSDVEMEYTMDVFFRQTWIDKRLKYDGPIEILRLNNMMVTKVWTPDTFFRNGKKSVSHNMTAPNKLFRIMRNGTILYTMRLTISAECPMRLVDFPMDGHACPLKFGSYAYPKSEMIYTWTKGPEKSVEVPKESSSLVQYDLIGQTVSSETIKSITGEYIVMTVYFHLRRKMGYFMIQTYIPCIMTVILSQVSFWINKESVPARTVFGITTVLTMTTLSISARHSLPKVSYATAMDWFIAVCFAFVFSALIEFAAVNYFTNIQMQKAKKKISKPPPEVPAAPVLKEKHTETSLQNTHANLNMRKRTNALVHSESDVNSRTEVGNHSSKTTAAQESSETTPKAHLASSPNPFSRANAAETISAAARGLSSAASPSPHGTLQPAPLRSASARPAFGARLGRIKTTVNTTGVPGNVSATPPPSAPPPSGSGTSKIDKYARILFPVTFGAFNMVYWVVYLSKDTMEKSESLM
Description: (§1) For electrophysiological recording HEK-293 cells were passaged and replated on 12-mm glass coverslips located in 9.6-cm plastic dishes filled with 10 ml of Minimum Essential Medium (MEM, Gibco) supplemented with 158 mg/l sodium bicarbonate, 2 mM glutamine (Gibco), 100 U/ml penicillin-streptomycin (Gibco), and 10% foetal calf serum (Gibco). Cultures were maintained at 37° C. in a humidified […]/5% CO2 atmosphere for 2-3 days.
(§2) Transfection with recombinant rat GABAA receptors was carried out as described in detail (Korpi and Lüddens, 1993, Lüddens and Korpi, 1995b). Briefly, HEK 293 cells were transfected in triple combinations using the phosphate precipitation method with rat GABAA receptor cDNAs in eukaryotic expression vectors (Pritchett, 1990) for the α, β and γ subunits. For optimal receptor expression, final concentrations (μg vector DNA per 9.6 cm tissue culture plate) were: α1, 2; α2 4.8; α3, 1.2; α4, 10; α5, 0.8; β2, 0.4; and γ2S, 0.3. The γ2S variant is abbreviated γ2 in the remainder of the text. To identify transfected cells all subunit combinations were co-transfected with 1 μg per plate of pNI-EGFP.
Two days after transfection single coverslips containing HEK 293 cells were placed in a recording chamber mounted on the movable stage of a fluorescence microscope (Olympus IX70) and perfused with a defined saline solution containing (in mM): 130 NaCl, 5.4 KCl, 2 CaCl2, 2 MgSO4, 10 glucose, 5 sucrose, and 10 HEPES (free acid), pH adjusted to 7.35 with about 35 mM NaOH. Transfected cells were identified by their green fluorescence due to the expression of the pNI-EGFP vector and ligand-mediated membrane currents of these cells were studied in the whole-cell configuration of the patch-clamp technique (Hamil et al., 1981). […]
Seal resistances >1 GΩ were routinely obtained by applying gentle suction to the pipettes. Membrane rupture was monitored electrically as an increase in capacity. […]
In all cells recorded the presence of the γ2 subunit in the heteropentamere was monitored by the application of 1 μM zolpidem plus the EC20 of GABA before testing the experimental drugs. […]

[3] = molecular target: T2, recombinant rat α2β2γ2 GABAA receptors (Rattus norvegicus, UniProt P23576); experiment: Whole-cell patch-clamp, modulation of GABA (EC20)-induced currents in transfected HEK 293 cells, α2β2γ2; assay type: cell-based; settings: α2β2γ2
T2 construct: expressed in transfected cells; host or cells: HEK 293
T2 sequence (P23576 29-451): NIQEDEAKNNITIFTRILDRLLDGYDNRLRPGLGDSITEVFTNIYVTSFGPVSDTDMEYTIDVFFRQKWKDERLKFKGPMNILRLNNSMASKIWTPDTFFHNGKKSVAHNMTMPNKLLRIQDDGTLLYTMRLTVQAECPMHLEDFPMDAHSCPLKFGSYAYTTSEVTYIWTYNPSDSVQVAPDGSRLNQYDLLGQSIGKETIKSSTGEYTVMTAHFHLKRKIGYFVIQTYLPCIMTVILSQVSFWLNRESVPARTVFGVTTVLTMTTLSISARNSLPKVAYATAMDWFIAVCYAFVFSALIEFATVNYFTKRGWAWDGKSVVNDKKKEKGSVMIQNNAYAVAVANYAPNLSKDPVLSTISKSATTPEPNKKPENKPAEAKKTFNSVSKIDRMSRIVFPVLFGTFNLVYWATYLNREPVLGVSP
Description: as §1, §2
Two days after transfection single coverslips containing HEK 293 cells were placed in a recording chamber mounted on the movable stage of a fluorescence microscope (Olympus IX70) and perfused with a defined saline solution containing (in mM): 130 NaCl, 5.4 KCl, 2 CaCl2, 2 MgSO4, 10 glucose, 5 sucrose, and 10 HEPES (free acid), pH adjusted to 7.35 with about 35 mM NaOH. Transfected cells were identified by their green fluorescence due to the expression of the pNI-EGFP vector and ligand-mediated membrane currents of these cells were studied in the whole-cell configuration of the patch-clamp technique (Hamil et al., 1981). Patch-clamp pipettes were pulled from hard borosilicate capillary glass (0.5 mm ID, 1.5 mm OD, Vitrex, Science Products GmbH, Hofheim, Germany) using a horizontal puller (Sutter Instruments, CA, Model P-97) in a multi-stage process.
Seal resistances >1 GΩ were routinely obtained by applying gentle suction to the pipettes. Membrane rupture was monitored electrically as an increase in capacity. Pipette capacitance, membrane capacitance, and series resistance were electronically compensated to achieve minimal capacitative transients. A series resistance compensation of >60% was regularly used.
In all cells recorded the presence of the γ2 subunit in the heteropentamere was monitored by the application of 1 μM zolpidem plus the EC20 of GABA before testing the experimental drugs.
Responses of the cells were recorded by a patch-clamp amplifier (EPC-8, HEKA-Electronic, Lambrecht, Germany) in conjunction with a standard personal computer and the pClamp 8.1 software package (Axon Instruments, Foster City, Calif.). The standard holding-potential for the cells was −40 mV. Whole cell currents were low-pass filtered by an eight-pole Bessel filter at 5 or 3 kHz before being digitised by a Digidata 1322A interface (Axon Instruments, Foster City, Calif.) and recorded by the computer at a sampling rate of at least […].
Efficacy, potency, and GABAA receptor a subunit specificity of the new compound ELB139 was tested with the whole cell configuration of the patch-clamp technique by applying increasing drug concentration together with GABA of the approximate EC20 on green fluorescing cells. BZ binding site specificity of the new compound was tested on the same cells in an identical experimental setting with additionally applying 10 μM Ro15-1788.

O=C1N=C(N2CCCCC2)CN1c1ccc(Cl)cc1 [ELB139, 1-(4-chlorophenyl)-4-piperidinoimidazolin-2-one]
HIAA concentration in the striatum [1]: without influencing | dopamine concentration in the striatum [1]: did also not influence | 5-HT concentration in the striatum ([1]; vs tylose vehicle): significantly and unexpectedly increased | locomotor activity (locomotor activity): did not show a significant reduction | modulation of GABA-induced currents (in words) ([2]; α4-containing receptors, diazepam up to 1 μM, ELB139 at all concentrations tested): unaffected; also recorded: not active | pEC50 ([2]; α4β2γ2, applied with approximate GABA EC20, read-out: EC50 (ELB139)): < 4.52 | modulation of GABA-induced currents (in words) ([3]; ELB139 0.01-30 μM): failed to evoke agonistic or inverse agonistic modulation; also recorded: no agonistic effect; also recorded: not at all active | pEC50 ([3]; applied with approximate GABA EC20, read-out: EC50 (ELB139)): < 4.52
